Data taken from PubChem BioAssay (NCI).
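Compound exposure: 48 hours, 5 concentrations, 96-well plates. GI50 marks 50% less growth. Definition used: TGI = concentration required for complete inhibition of growth.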

Legend:
Test in all cases: NCI anticancer screen, dose series, 48 h
NCI-H522 lung = test system: NCI-H522 lung
SN12C renal = test system: SN12C renal
SW-620 colon = test system: SW-620 colon
BT-549 breast = test system: BT-549 breast
LOX IMVI melanoma = test system: LOX IMVI melanoma
HS 578T breast = test system: HS 578T breast
786-0 renal = test system: 786-0 renal
DU-145 prostate = test system: DU-145 prostate
T-47D breast = test system: T-47D breast
HL-60(TB) leukemia = test system: HL-60(TB) leukemia

COc1ccc(/C=C2/CN(CCC#N)C/C(=C\c3ccc(OC)cc3)C2=O)cc1
GI50 (NCI-H522 lung): 1.83 µM
TGI (NCI-H522 lung): 4.32 µM
GI50 (SN12C renal): 2.18 µM
TGI (SN12C renal): 6.31 µM
GI50 (SW-620 colon): 2.15 µM
TGI (SW-620 colon): 6.72 µM
GI50 (BT-549 breast): 2.1 µM
TGI (BT-549 breast): 4.73 µM
GI50 (LOX IMVI melanoma): 1.7 µM
TGI (LOX IMVI melanoma): 4.03 µM
GI50 (HS 578T breast): 2.98 µM
TGI (HS 578T breast): 64.4 µM
GI50 (786-0 renal): 1.99 µM
TGI (786-0 renal): 4.33 µM
GI50 (DU-145 prostate): 4.25 µM
TGI (DU-145 prostate): > 100 µM
GI50 (T-47D breast): 3.76 µM
TGI (T-47D breast): > 100 µM

O=C(Nc1ccccc1)Nc1ccc(Cl)c(Cl)c1
GI50 (NCI-H522 lung): 1.69 µM
TGI (NCI-H522 lung): 7.67 µM
GI50 (SN12C renal): 3 µM
TGI (SN12C renal): > 100 µM
GI50 (SW-620 colon): 3.58 µM
TGI (SW-620 colon): > 100 µM
GI50 (HL-60(TB) leukemia): 3.98 µM
TGI (HL-60(TB) leukemia): 26.9 µM
GI50 (BT-549 breast): 4.99 µM
TGI (BT-549 breast): 85.9 µM
GI50 (LOX IMVI melanoma): 2.51 µM
TGI (LOX IMVI melanoma): 16.3 µM
GI50 (HS 578T breast): 2.9 µM
TGI (HS 578T breast): 29 µM
GI50 (786-0 renal): 3.7 µM
TGI (786-0 renal): > 100 µM
GI50 (DU-145 prostate): 3.69 µM
TGI (DU-145 prostate): > 100 µM
GI50 (T-47D breast): 2.57 µM
TGI (T-47D breast): > 100 µM

CC(C)COC(c1ccc2c(c1)OCO2)C(C)Br (stereo unspecified)
TGI (NCI-H522 lung): 37.8 µM
TGI (SN12C renal): 45 µM
TGI (SW-620 colon): > 100 µM
TGI (BT-549 breast): > 100 µM
TGI (LOX IMVI melanoma): 35.4 µM
TGI (HS 578T breast): 64.6 µM
TGI (786-0 renal): 62.3 µM
TGI (DU-145 prostate): > 100 µM

O=C1NC(=N[C@H](CO)c2ccccc2)S/C1=C\c1ccc2ncccc2c1
GI50 (NCI-H522 lung): 1.54 µM
TGI (NCI-H522 lung): 6.31 µM
GI50 (SN12C renal): 5.02 µM
TGI (SN12C renal): > 25 µM
GI50 (SW-620 colon): 4.02 µM
TGI (SW-620 colon): > 20.5 µM
GI50 (HL-60(TB) leukemia): 4.19 µM
TGI (HL-60(TB) leukemia): 16.7 µM
GI50 (BT-549 breast): 3.95 µM
TGI (BT-549 breast): > 16 µM
GI50 (LOX IMVI melanoma): 2.41 µM
TGI (LOX IMVI melanoma): 22 µM
GI50 (HS 578T breast): 3.49 µM
TGI (HS 578T breast): > 13.8 µM
GI50 (786-0 renal): 7.31 µM
TGI (786-0 renal): > 25 µM
GI50 (DU-145 prostate): 3.3 µM
TGI (DU-145 prostate): > 21.3 µM
GI50 (T-47D breast): 4.18 µM
TGI (T-47D breast): > 24.1 µM

COc1cc(-c2nn(-c3cccc(NC(=O)CCN4CCN(C)CC4)c3)cc2-c2ccncc2)ccc1Cl
GI50 (NCI-H522 lung): 0.283 µM
TGI (NCI-H522 lung): 1.08 µM
GI50 (SN12C renal): 2.05 µM
TGI (SN12C renal): 8.45 µM
GI50 (SW-620 colon): 0.443 µM
TGI (SW-620 colon): 1.86 µM
GI50 (HL-60(TB) leukemia): 0.735 µM
TGI (HL-60(TB) leukemia): 2.79 µM
GI50 (BT-549 breast): 7.26 µM
TGI (BT-549 breast): 20.4 µM
GI50 (LOX IMVI melanoma): 0.922 µM
TGI (LOX IMVI melanoma): 2.22 µM
GI50 (HS 578T breast): 1.41 µM
TGI (HS 578T breast): 6.39 µM
GI50 (786-0 renal): 1.54 µM
TGI (786-0 renal): 3.43 µM
GI50 (DU-145 prostate): 0.997 µM
TGI (DU-145 prostate): 6.24 µM
GI50 (T-47D breast): 2.34 µM
TGI (T-47D breast): 10.1 µM

COC(=O)C1=C(\O)C[C@@]2(C)CC[C@@H](C(=O)OC)C2C/C=C\1C(=O)OC (stereo partly specified)
TGI (NCI-H522 lung): > 100 µM
TGI (SN12C renal): > 100 µM
TGI (SW-620 colon): > 100 µM
TGI (HL-60(TB) leukemia): > 100 µM
TGI (LOX IMVI melanoma): > 100 µM
TGI (786-0 renal): > 100 µM

CCN1C(=O)N(CC)C2C1NN=c1s/c(=C\c3ccc(OC)cc3)c(=O)n12 (stereo unspecified)
GI50 (NCI-H522 lung): 0.105 µM
GI50 (SN12C renal): 0.454 µM
TGI (SN12C renal): > 100 µM
GI50 (SW-620 colon): 0.136 µM
TGI (SW-620 colon): > 100 µM
GI50 (HL-60(TB) leukemia): 0.174 µM
TGI (HL-60(TB) leukemia): 0.477 µM
GI50 (BT-549 breast): 0.288 µM
TGI (BT-549 breast): > 25.1 µM
GI50 (LOX IMVI melanoma): 0.233 µM
TGI (LOX IMVI melanoma): > 100 µM
GI50 (HS 578T breast): 0.219 µM
TGI (HS 578T breast): > 100 µM
GI50 (786-0 renal): 0.647 µM
TGI (786-0 renal): > 100 µM
GI50 (DU-145 prostate): 0.323 µM
TGI (DU-145 prostate): > 29.8 µM
GI50 (T-47D breast): 0.163 µM
TGI (T-47D breast): > 100 µM
